Values joined by “and” are separate entries in the source; they are usually repeats but may differ in a detail not shown here. Equal entries are not always repeated. Where two headings read alike, the source gives them in different places.
Columns and labels:
F36I mutant FKBP = assay: Competitive Binding FP Assay; set-up: species or system human; details: Synthetic Monomers table; normalized to value of FK506 run in the same experiment
Experimental: (§1) Affinities of bumped synthetic ligands for FKBP were determined using a competitive assay based on fluorescence polarization (FP). […] The assay yields IC50 values that are related to the affinity of the competitive ligand for the protein.
(§2) All binding assay procedures were performed at room temperature. Serial dilutions of each protein were prepared in 50 mM potassium phosphate pH 7.8/150 mM NaCl/ 100µg/ml bovine gamma globulin ("FP buffer": prepared using only low-fluorescence reagents from Panvera), and 100 µl volumes transferred to wells of a Dynatech micro-fluor black 96-well fluorescence plate. 100 µl of 10 nM 4 in FP buffer plus 2% ethanol (prepared from an ethanol stock of the probe) was then added to each well with mixing. Duplicate control wells contained FP buffer instead of FKBP (for 0% probe binding) or 10 µM wild-type FKBP (for 100% binding).
(§3) The plates were stored covered in the dark for approximately 30 min to permit equilibration and then the fluorescence polarization of the sample in each well was read on a Jolley FPM-2 FP plate reader (Jolley Consulting and Research, Inc., Grayslake, IL) in accordance with the manufacturer's recommendations. Polarization (mP units) for each protein concentration was plotted (y axis) vs. final concentration of FKBP (x axis). Concentrations were determined by OD280 measurements. Arbitrary units were used for non-quantitated proteins.
(§4) Serial 10-fold dilutions of each synthetic ligand were prepared in 100% ethanol in glass vials and stored on ice. All other manipulations were performed at room temperature. […] 2.0 µl samples of the synthetic ligands were then transferred in duplicate to the wells with mixing. Finally, a probe solution was prepared containing 10 nM 4 in 0.1% ethanol/FP buffer, and 100 µl added to each well with mixing. Duplicate control wells contained ethanol instead of FKBP ligand (for 100% probe binding) or ethanol instead of FKBP ligand and FP buffer instead of FKBP (0% binding).
(§5) The plates were stored covered in the dark for approximately 30 min to permit equilibration and then the fluorescence polarization of the sample in each well read on a Jolley FPM-2 FP plate reader (Jolley Consulting and Research, Inc., Grayslake, IL) in accordance with the manufacturer's recommendations. The mean polarization (mP units) for each competitor concentration, in some cases converted to % total binding by reference to the control values, was plotted (y axis) vs. log molar final concentration of competitor (x axis). […] For incomplete curves the IC50 was determined by interpolation.

F36M mutant FKBP = assay: Competitive Binding FP Assay; set-up: species or system human; details: Synthetic Monomers table; normalized to value of FK506 run in the same experiment
Experimental: as §1, §2, §3, §4, §5

F36L mutant FKBP = F36L mutant FKBP (Homo sapiens, UniProt P62942, F37L); assay: Competitive Binding FP Assay
Chain of F36L mutant FKBP (P62942 2-108 F37L): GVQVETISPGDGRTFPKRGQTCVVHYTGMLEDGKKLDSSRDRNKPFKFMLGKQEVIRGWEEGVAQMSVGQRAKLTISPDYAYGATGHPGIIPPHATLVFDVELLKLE
Experimental: as §1, §2, §3, §4, §5

mutant (F36V) FKBP = assay: Competitive Binding FP Assay; set-up: species or system human
Experimental: as §1, §2, §3, §4, §5

F36A mutant FKBP = assay: Competitive Binding FP Assay; set-up: species or system human; details: Synthetic Monomers table; normalized to value of FK506 run in the same experiment
Experimental: as §1, §2, §3, §4, §5

wild-type human FKBP12 = wild-type human FKBP12 (Homo sapiens, UniProt P62942); assay: Competitive Binding FP Assay
Chain of wild-type human FKBP12 (P62942 2-108): as the sequence (P62942 2-108 F37L) above, with L36F counted along it
Experimental: as §1, §2, §3
Serial 10-fold dilutions of each synthetic ligand were prepared in 100% ethanol in glass vials and stored on ice. All other manipulations were performed at room temperature. […] Finally, a probe solution was prepared containing 10 nM 4 in 0.1% ethanol/FP buffer, and 100 µl added to each well with mixing. Duplicate control wells contained ethanol instead of FKBP ligand (for 100% probe binding) or ethanol instead of FKBP ligand and FP buffer instead of FKBP (0% binding).
as §5

[1] = system: FKBP-containing fusion proteins (wt FKBP); assay: Transcription Assay, activation of reporter gene transcription (wt; stable); type: cell-based, human; details: at 1000 nM; each value an individual experiment
Text: The ability of the multimerizing agents to multimerize chimeric proteins may be measured cell-based assays by measuring the occurrence of an event triggered by such multimerization. For instance, one may use cells containing and capable of expressing DNAs encoding chimeric proteins comprising one or more immunophilin-derived ligand binding domains and one or more effector domains capable, upon multimerization, of actuating a biological response. We prefer to use cells which further contain a reporter gene under the transcriptional control of a regulatory element (i.e., promoter) which is responsive to the multimerization of the chimeric proteins (at least one of which contains an FKBP domain). […] The cells are grown or maintained in culture. A multimerizing agent is added to the culture medium and after a suitable incubation period (to permit gene expression and secretion, e.g. several hours or overnight) the presence of the reporter gene product is measured. Positive results, i.e., multimerization, correlates with transcription of the reporter gene as observed by the appearance of the reporter gene product. The reporter gene product may be a conveniently detectable protein (e.g. by ELISA) or may catalyze the production of a conveniently detectable product (e.g. colored).
Dimerizers may also be assayed for their ability to activate transcription of a reporter gene linked to a regulatory sequence responsive to the dimerization of FKBP-containing fusion proteins containing one or more transcription regulatory domains (e.g. DNA binding domains and transcription activation domains). We have made use of such as system as follows. […] The reporter plasmid (G5IL2-SEAP) used in these assays contains a gene that encodes for secreted alkaline phosphatase (SEAP) under the control of the minimal IL2 promoter and 5XGAL4 binding sites placed upstream of the promoter. In all cases, a plasmid expressing growth hormone was used as an internal control to moniter transfection efficiency. Approximately, 16 hrs after transfection, the media was removed and the cells were washed twice with PBS. Cells were refed with 2.5 ml of DMEM containing 10% serum and two hours later, synthetic dimerizers were added directly to the medium at appropriate concentrations in 5ul of ethanol carrier solution. Approximetely, 24 hrs after the addition of the drugs, 100 ul of the media was removed and assayed for SEAP activity and another 100 ul of the media was used to assay for growth hormone activity (to normalize for transfection efficiency).

[2] = system: FAS-FKBP fusion (wt FKBP) in HT1080 cells; type: cell-based, human; details: for Fas killing (wt, stable): % @ 1000: human, ht1080 cells, 1 µM
Text: In this case, one uses cells which constituively express a detectable product. The cells also contain and are capable of expressing DNAs encoding chimeric proteins comprising one or more immunophilin-derived ligand binding domains and one or more effector domains, such as the intracellular domain of FAS, capable, upon multimerization, of triggering cell death. […] The cells are maintainined or cultured in a culture medium permitting cell growth or continued viability. The cells or medium are assayed for the presence of the constitutive cellular product, and a base-line level of reporter is thus established. One may use cells engineered for constituive production of hGH or any other conveniently detectable product to serve as the reporter. The compound to be tested is addded to the medium, the cells are incubated, and the cells or medium is tested for the presence of reporter at one or more time points. Decrease in reporter production indicates cell death, an indirect measure of multimerization of the fusion proteins.
The ability of a dimerizer to activate the Fas signal transduction pathway and trigger cell death in cells engineered to express a FAS-FKBP fusion can be tested in cells appropriately transduced by retroviral vectors to express the desired fusion protein. […] The retroviral supernatant is used to transduce target cells. To screen compounds and constructs, we used the human fibrosarcoma line HT1080. Two to three days after transfection, cells are plated into G418 and the resistant population or clones are isolated by standard means. To monitor dimerizer-induced apoptosis, cells are plated into a 96-well plate at either 5000 or 10,000 cells/well in MEM medium containing 10% fetal bovine serum. The next day, medium removed and replaced with freshmedium containing the test compound at various dilutions, in triplicate. In some cases, Actinomycin D is included at 50 ng/ml. Untreated wells are always included. The next day, medium is removed and replaced with medium containing 10% Alamar Blue viability indicator, which changes absorbance properties as a function of reducing agent released into the medium by cell metabolism. Alternatively, cells are counted. Optical density at the appropriate wavelength is measured using a platereader spectroscope.

[3] = system: cells expressing a construct containing p75 followed by 2 mutant FKBPs followed by a Fas effector domain; assay: Cell death monitored by Alamar Blue or hGH levels in hGH-expressing clones; type: cell-based
Text: As an alternative method for monitoring cell death, cells expressing a construct containing p75 followed by 2 mutant FKBPs followed by a Fas effector domain were transfected using an episomal vector, pCEP4 (Invitrogen Corp.) into which we had inserted DNA encoding hGH under control of a CMV promoter. The vector confers resistance to hygromycin. […] Monitoring Alamar Blue or hGH levels led to very similar EC50 curves for cell viability (measured as a % of control value) plotted against dimerizer concentration. In both cases the concentration of dimerizer corresponding to 50% of control was less than 1 nM.

[4] = Synthetic Monomers table, normalized to value of FK506 run in the same experiment, read-out: F36L IC50
[5] = Synthetic Monomers table, normalized to value of FK506 run in the same experiment, read-out: F36V IC50
[6] = Synthetic Monomers table, normalized to value of FK506 run in the same experiment, read-out: wild-type IC50
[7] = Synthetic Multimerizers table, monomer value in brackets, mean of duplicates, normalized to FK506 = […] (substituted phenyl/lower aliphatic series: to AP1903 values), read-out: FKBPF36V binding affinity IC50
[8] = read-out: FKBPwt binding affinity IC50

Row | Compound | IC50 (F36I mutant FKBP) [nM] | IC50 (F36M mutant FKBP) [nM] | IC50 (F36L mutant FKBP; [4]) [nM] | IC50 (mutant (F36V) FKBP; [5]) [nM] | IC50 (F36A mutant FKBP) [nM] | IC50 (wild-type human FKBP12; [6]) [nM] | IC50 (mutant (F36V) FKBP; [7]) [nM] | also measured
1 | COc1ccc(CC[C@@H](OC(=O)[C@@H]2CCCCN2C(=O)C(c2ccccc2)c2ccccc2)c2cccc(OCC(=O)O)c2)cc1OC [AP14245] | 562 | 173 | 684 | 273 | 127 |  |  | 
2 | COc1ccc(CC[C@@H](OC(=O)[C@@H]2CCCCN2C(=O)[C@H](C)c2ccccc2)c2cccc(OCC(=O)O)c2)cc1OC [AP1782] | 1050 | 927 | 1400 | 590 | 1430 | > 100000 |  | 
3 | COc1ccc(CCC(OC(=O)C2CCCCN2C(=O)C(c2ccccc2)C2CCCC2)c2cccc(OCC(=O)O)c2)cc1OC (mixture of isomers) [AP1778] |  |  | 32 | 22 |  | 16000 |  | 
4 | CC[C@@H](C(=O)N1CCCC[C@H]1C(=O)O[C@H](CCc1ccc(OC)c(OC)c1)c1cccc(OCC(=O)O)c1)c1ccccc1 [AP1769] | 346 | 193 | 238 | 133 | 460 | 220000 |  | 
5 | CCC(C(=O)N1CCCC[C@H]1C(=O)O[C@H](CCc1ccc(OC)c(OC)c1)c1cccc(OCC(=O)O)c1)c1ccc2c(c1)OCO2 (some centres unmarked) [AP1839] | 26 | 19 |  | 9 | 32 | 13500 | 5.4 | IC50 (F36L mutant FKBP; read-out: F36L IC50): 57 nM; IC50 (wild-type human FKBP12; [8]): 16700 nM
6 | COc1ccc(CCC(OC(=O)C2CCCCN2C(=O)C(Cc2ccccc2)c2ccccc2)c2cccc(OCC(=O)O)c2)cc1OC (mixture of isomers) [AP1831] |  |  | 217 | 153 |  | > 10000 |  | 
7 | CCC(CC)NC(=O)N1CCCC[C@H]1C(=O)O[C@H](CCc1ccc(OC)c(OC)c1)c1cccc(OCC(=O)NCCNC(=O)COc2cccc([C@@H](CCc3ccc(OC)c(OC)c3)OC(=O)[C@@H]3CCCCN3C(=O)NC(CC)CC)c2)c1 [AP1966] |  |  |  |  |  |  | 58 | 
8 | COc1ccc(CCC(OC(=O)C2CCCCN2C(=O)C(c2ccccc2)C(C)C)c2cccc(OCC(=O)O)c2)cc1OC (mixture of isomers) [AP1781] |  |  | 33 | 26 |  | 38600 |  | 
9 | COc1ccc(CC[C@@H](OC(=O)[C@@H]2CCCCN2C(=O)Cc2ccccc2)c2cccc(OCC(=O)O)c2)cc1OC [AP1780] | 2060 | 2600 |  | 1530 | 8330 | 21600 |  | IC50 (F36L mutant FKBP; read-out: F36L IC50): 3580 nM
10 | COc1ccc(CC[C@@H](OC(=O)[C@@H]2CCCCN2C(=O)[C@@H](C)c2ccccc2)c2cccc(OCC(=O)O)c2)cc1OC [AP1784] | 117 | 414 | 92 | 94 | 171 | 16000 |  | 
11 | CCC(CC)C(=O)N1CCCC[C@H]1C(=O)O[C@H](CCc1ccc(OC)c(OC)c1)c1cccc(OCC(=O)NCCNC(=O)COc2cccc([C@@H](CCc3ccc(OC)c(OC)c3)OC(=O)[C@@H]3CCCCN3C(=O)C(CC)CC)c2)c1 [AP1891] |  |  |  |  |  |  |  | activation of transcription (wt; stable): % @ 1000 [1]: 0% @ 1000; Fas killing (wt, stable): % @ 1000 [2]: 0% @ 1000
12 | CC[C@H](C(=O)N1CCCC[C@H]1C(=O)O[C@H](CCc1ccc(OC)c(OC)c1)c1cccc(OCC(=O)O)c1)c1cc(OC)c(OC)c(OC)c1 [AP1867] |  |  |  |  |  |  | 1.8 | IC50 (F36L mutant FKBP; read-out: FKBPF36L binding affinity IC50): 6.2 nM; IC50 (wild-type human FKBP12; [8]): 1960 nM
13 | CC[C@H](C(=O)N1CCCC[C@H]1C(=O)O[C@H](CCN1CCOCC1)c1cccc(OCC(=O)O)c1)c1cc(OC)c(OC)c(OC)c1 [AP14246, (1R)-1-(3-(carboxymethoxy)phenyl)-3-(morpholino)-1-propyl (2S)-1-((2S)-(3,4,5-trimethoxyphenyl)butyryl)-2-piperdine carboxylate] |  |  |  |  |  |  | 16.5 | 
14 | CCC(C)(C)C(=O)C(=O)N1CCCC[C@H]1C(=O)O[C@H](CCc1ccc(OC)c(OC)c1)c1cccc(OCC(=O)O)c1 [AP1497] |  |  | 47 | 44 |  | 86 |  | 
15 | CC[C@H](C(=O)N1CCCC[C@H]1C(=O)O[C@H](CCc1ccc(OC)c(OC)c1)c1cccc(OCC(=O)NCCNC(=O)COc2cccc([C@@H](CCc3ccc(OC)c(OC)c3)OC(=O)[C@@H]3CCCCN3C(=O)[C@@H](CC)c3ccccc3)c2)c1)c1ccccc1 [AP1889] |  |  |  |  |  |  | 10000 | activation of transcription (wt; stable): % @ 1000 [1]: 0% (2×) and 1%; Fas killing (wt, stable): % @ 1000 [2]: 0% @ 1000
16 | AP1903 |  |  |  |  |  |  |  | EC50 ([3]; Alamar Blue readout, read-out: concentration of dimerizer corresponding to 50% of control (cell viability, Alamar Blue)): < 1 nM; EC50 ([3]; hGH readout, read-out: concentration of dimerizer corresponding to 50% of control (hGH levels)): < 1 nM; EC50 ([2]; mean values, read-out: Fas killing (wt, stable) EC50): 40 to 50 nM
17 | CCC(C(=O)N1CCCC[C@H]1C(=O)O[C@H](CCc1ccc(OC)c(OC)c1)c1cccc(OCC(=O)NCCNC(=O)COc2cccc([C@@H](CCc3ccc(OC)c(OC)c3)OC(=O)[C@@H]3CCCCN3C(=O)C(CC)c3ccc4c(c3)OCO4)c2)c1)c1ccc2c(c1)OCO2 (some centres unmarked) [AP1885] |  |  |  |  |  |  | 59.4 | activation of transcription (wt; stable): % @ 1000 [1]: 0% @ 1000; Fas killing (wt, stable): % @ 1000 [2]: 0% @ 1000
